# Test results published in patent US20250108038A1 (priority 2023, published 2025).
# “And” between values parts separate entries of the source, which are not always exact repeats. Identical values can stand only once.
# Tested on: Long Evans rats
# Assay: Behavioral satiety sequence (BSS)
# Assay type: in vivo, Long Evans rat
# Conditions: for BSS scoring A (active), Time Bin 13 (60-65 TOTAL), AVG / BSS scoring A (active), Time Bin 14 (65-70 TOTAL), AVG / BSS scoring A (active), Time Bin 15 (70-75 TOTAL), AVG / BSS scoring A (active), Time Bin 16 (75-80 TOTAL), AVG / BSS scoring A (active), Time Bin 17 (80-85 TOTAL), AVG / BSS scoring A (active), Time Bin 18 (85-90 TOTAL), AVG / BSS scoring E (eating/drinking), Time Bin 13 (60-65 TOTAL), AVG / BSS scoring E (eating/drinking), Time Bin 14 (65-70 TOTAL), AVG / BSS scoring E (eating/drinking), Time Bin 15 (70-75 TOTAL), AVG / BSS scoring E (eating/drinking), Time Bin 16 (75-80 TOTAL), AVG / BSS scoring E (eating/drinking), Time Bin 17 (80-85 TOTAL), AVG / BSS scoring E (eating/drinking), Time Bin 18 (85-90 TOTAL), AVG / BSS scoring G (grooming), Time Bin 13 (60-65 TOTAL), AVG / BSS scoring G (grooming), Time Bin 14 (65-70 TOTAL), AVG / BSS scoring G (grooming), Time Bin 15 (70-75 TOTAL), AVG / BSS scoring G (grooming), Time Bin 16 (75-80 TOTAL), AVG / BSS scoring G (grooming), Time Bin 17 (80-85 TOTAL), AVG / BSS scoring G (grooming), Time Bin 18 (85-90 TOTAL), AVG / BSS scoring R (resting), Time Bin 13 (60-65 TOTAL), AVG / BSS scoring R (resting), Time Bin 14 (65-70 TOTAL), AVG / BSS scoring R (resting), Time Bin 15 (70-75 TOTAL), AVG / BSS scoring R (resting), Time Bin 16 (75-80 TOTAL), AVG / BSS scoring R (resting), Time Bin 17 (80-85 TOTAL), AVG / BSS scoring R (resting), Time Bin 18 (85-90 TOTAL), AVG: AVG of animals LT-1 to LT-12
# Source text: The Behavioural Satiety Sequence (BSS) is a technique used to evaluate physiological satiety. It is based on the expression of a sequence of behaviors including eating, grooming, locomotor activity, followed by resting, which are typically observed in rodents post-ingestion (Halford et al, 1998, Pharmacology Biochemistry and Behaviour. 61(2): 159-168). The BSS is a widely used model for determining the effects of novel pharmaceuticals on food intake and measures of satiety in rodents (Oliveira et al, 2011, Revista de Nutrição. 24(4) 619-628), and to discriminate the cause of reduced food intake following pharmacological manipulation. For example, treatments that may reduce food intake by non-specific mechanisms, such as immobility, malaise, and taste adulteration, will disrupt this sequence (Halford et al, 1998, Pharmacology Biochemistry and Behaviour. 61(2): 159-168).
# Specifically, 12 male Long-Evans rats were food-deprived for 22 h with a 2 h feeding period each day. Rats were trained to consume daily food during the 2 h period over 25 days. The testing phase was initiated once the rats consistently consumed 16-18 g of food per day with ≤10% variance in amount of feed consumed. Feeding took place in designated individual boxes in a quiet room separate from the housing room. Continuous remote monitoring via video camera during feeding was used to assess the BSS. Food consumption was measured by weighing the total available food before and after the 2 h feeding window, correcting for spillage. Lorcaserin (1 mg/kg) was included as a reference control (Higgins et al, 2011, Neuropsychopharmacology. 37(5): 1177-1191). Subjects were tested using a repeated-measures, Latin square design with 2-3 days wash-out between treatment cycles.
# On scheduled test days, animals were monitored remotely via video camera during the feeding access period. The occurrence of four mutually exclusive behaviors (eating/drinking, grooming, active, rest) were individually scored. Over the 2 h feeding period, behaviors were assessed every 30 seconds. Scores were compiled into 23 5 min timebins (timebin 24 was removed due to early removal of animals) and the frequency of each behavior within each timebin was calculated to determine a temporal frequency of each measure (Rodgers et al, 2010, Pharmacology Biochemistry and Behaviour. 97: 3-14). Percentage time was plotted for each behavioral sequence in each timebin to compare between treatment groups (Higgins et al, 2011, Neuropsychopharmacology. 37(5): 1177-1191).
# [1] = 0.1 mg/kg, raw score per animal LT-1 to LT-12
# [2] = 0.3 mg/kg, raw score per animal LT-1 to LT-12
structure (smiles),measurement,setting,value
Clc1ccc(C2(OCC3OCCO3)c3ccccc3C3=NCCN32)cc1 (stereo not drawn) [Compound I-19],"BSS scoring A (active), Time Bin 13 (60-65 TOTAL), AVG",0.1 mg/kg,0.20
same,"BSS scoring A (active), Time Bin 14 (65-70 TOTAL), AVG",0.1 mg/kg,0.10
same,"BSS scoring A (active), Time Bin 15 (70-75 TOTAL), AVG",0.1 mg/kg,0.13
same,"BSS scoring A (active), Time Bin 16 (75-80 TOTAL), AVG",0.1 mg/kg,0.23
same,"BSS scoring A (active), Time Bin 17 (80-85 TOTAL), AVG",0.1 mg/kg,0.36
same,"BSS scoring A (active), Time Bin 18 (85-90 TOTAL), AVG",0.1 mg/kg,0.22
same,"BSS scoring E (eating/drinking), Time Bin 13 (60-65 TOTAL), AVG",0.1 mg/kg,0.74
same,"BSS scoring E (eating/drinking), Time Bin 14 (65-70 TOTAL), AVG",0.1 mg/kg,0.83
same,"BSS scoring E (eating/drinking), Time Bin 15 (70-75 TOTAL), AVG",0.1 mg/kg,0.83
same,"BSS scoring E (eating/drinking), Time Bin 16 (75-80 TOTAL), AVG",0.1 mg/kg,0.63
same,"BSS scoring E (eating/drinking), Time Bin 17 (80-85 TOTAL), AVG",0.1 mg/kg,0.58
same,"BSS scoring E (eating/drinking), Time Bin 18 (85-90 TOTAL), AVG",0.1 mg/kg,0.71
same,"BSS scoring G (grooming), Time Bin 13 (60-65 TOTAL), AVG",0.1 mg/kg,0.03
same,"BSS scoring G (grooming), Time Bin 14 (65-70 TOTAL), AVG",0.1 mg/kg,0.05
same,"BSS scoring G (grooming), Time Bin 15 (70-75 TOTAL), AVG",0.1 mg/kg,0.01
same,"BSS scoring G (grooming), Time Bin 16 (75-80 TOTAL), AVG",0.1 mg/kg,0.05
same,"BSS scoring G (grooming), Time Bin 17 (80-85 TOTAL), AVG",0.1 mg/kg,0.05
same,"BSS scoring G (grooming), Time Bin 18 (85-90 TOTAL), AVG",0.1 mg/kg,0.02
same,"BSS scoring R (resting), Time Bin 13 (60-65 TOTAL), AVG",0.1 mg/kg,0.03
same,"BSS scoring R (resting), Time Bin 14 (65-70 TOTAL), AVG",0.1 mg/kg,0.02
same,"BSS scoring R (resting), Time Bin 15 (70-75 TOTAL), AVG",0.1 mg/kg,0.03
same,"BSS scoring R (resting), Time Bin 16 (75-80 TOTAL), AVG",0.1 mg/kg,0.08
same,"BSS scoring R (resting), Time Bin 17 (80-85 TOTAL), AVG",0.1 mg/kg,0.02
same,"BSS scoring R (resting), Time Bin 18 (85-90 TOTAL), AVG",0.1 mg/kg,0.06
same,"BSS scoring A (active), Time Bin 13 (60-65 TOTAL)",[1],0 (5×) and 4 (2×) and 5 and 1 (3×) and 8
same,"BSS scoring A (active), Time Bin 14 (65-70 TOTAL)",[1],0 (6×) and 1 (2×) and 4 and 2 (3×)
same,"BSS scoring A (active), Time Bin 15 (70-75 TOTAL)",[1],5 and 3 (3×) and 0 (7×) and 2
same,"BSS scoring A (active), Time Bin 16 (75-80 TOTAL)",[1],4 (3×) and 3 and 5 (2×) and 0 (4×) and 2 and 1
same,"BSS scoring A (active), Time Bin 17 (80-85 TOTAL)",[1],0 (3×) and 3 and 9 (2×) and 1 and 6 and 5 and 4 (2×) and 2
same,"BSS scoring A (active), Time Bin 18 (85-90 TOTAL)",[1],0 (4×) and 1 (2×) and 7 and 3 and 5 (2×) and 2 (2×)
same,"BSS scoring E (eating/drinking), Time Bin 13 (60-65 TOTAL)",[1],8 (4×) and 5 (2×) and 6 and 10 (3×) and 9 and 2
same,"BSS scoring E (eating/drinking), Time Bin 14 (65-70 TOTAL)",[1],10 (3×) and 8 (3×) and 9 (3×) and 5 and 7 (2×)
same,"BSS scoring E (eating/drinking), Time Bin 15 (70-75 TOTAL)",[1],5 and 7 (2×) and 10 (4×) and 9 (3×) and 6 and 8
same,"BSS scoring E (eating/drinking), Time Bin 16 (75-80 TOTAL)",[1],6 (3×) and 3 (3×) and 10 and 9 (2×) and 8 (2×) and 4
same,"BSS scoring E (eating/drinking), Time Bin 17 (80-85 TOTAL)",[1],10 (2×) and 7 and 0 and 9 (2×) and 3 and 4 and 5 (2×) and 6 and 2
same,"BSS scoring E (eating/drinking), Time Bin 18 (85-90 TOTAL)",[1],10 (4×) and 8 (2×) and 7 (3×) and 0 and 5 and 3
same,"BSS scoring G (grooming), Time Bin 13 (60-65 TOTAL)",[1],0 (9×) and 1 (3×)
same,"BSS scoring G (grooming), Time Bin 14 (65-70 TOTAL)",[1],0 (6×) and 1 (6×)
same,"BSS scoring G (grooming), Time Bin 15 (70-75 TOTAL)",[1],0 (11×) and 1
same,"BSS scoring G (grooming), Time Bin 16 (75-80 TOTAL)",[1],0 (9×) and 4 and 1 (2×)
same,"BSS scoring G (grooming), Time Bin 17 (80-85 TOTAL)",[1],0 (7×) and 1 (4×) and 2
same,"BSS scoring G (grooming), Time Bin 18 (85-90 TOTAL)",[1],0 (10×) and 1 (2×)
same,"BSS scoring R (resting), Time Bin 13 (60-65 TOTAL)",[1],2 and 0 (9×) and 1 (2×)
same,"BSS scoring R (resting), Time Bin 14 (65-70 TOTAL)",[1],0 (10×) and 1 (2×)
same,"BSS scoring R (resting), Time Bin 15 (70-75 TOTAL)",[1],0 (9×) and 1 (3×)
same,"BSS scoring R (resting), Time Bin 16 (75-80 TOTAL)",[1],0 (5×) and 2 and 3 and 1 (5×)
same,"BSS scoring R (resting), Time Bin 17 (80-85 TOTAL)",[1],0 (10×) and 1 (2×)
same,"BSS scoring R (resting), Time Bin 18 (85-90 TOTAL)",[1],0 (7×) and 1 (4×) and 3
same,"BSS scoring A (active), Time Bin 13 (60-65 TOTAL), AVG",0.3 mg/kg,0.09
same,"BSS scoring A (active), Time Bin 14 (65-70 TOTAL), AVG",0.3 mg/kg,0.13
same,"BSS scoring A (active), Time Bin 15 (70-75 TOTAL), AVG",0.3 mg/kg,0.32
same,"BSS scoring A (active), Time Bin 16 (75-80 TOTAL), AVG",0.3 mg/kg,0.13
same,"BSS scoring A (active), Time Bin 17 (80-85 TOTAL), AVG",0.3 mg/kg,0.17
same,"BSS scoring A (active), Time Bin 18 (85-90 TOTAL), AVG",0.3 mg/kg,0.23
same,"BSS scoring E (eating/drinking), Time Bin 13 (60-65 TOTAL), AVG",0.3 mg/kg,0.81
same,"BSS scoring E (eating/drinking), Time Bin 14 (65-70 TOTAL), AVG",0.3 mg/kg,0.80
same,"BSS scoring E (eating/drinking), Time Bin 15 (70-75 TOTAL), AVG",0.3 mg/kg,0.56
same,"BSS scoring E (eating/drinking), Time Bin 16 (75-80 TOTAL), AVG",0.3 mg/kg,0.79
same,"BSS scoring E (eating/drinking), Time Bin 17 (80-85 TOTAL), AVG",0.3 mg/kg,0.69
same,"BSS scoring E (eating/drinking), Time Bin 18 (85-90 TOTAL), AVG",0.3 mg/kg,0.62
same,"BSS scoring G (grooming), Time Bin 13 (60-65 TOTAL), AVG",0.3 mg/kg,0.03
same,"BSS scoring G (grooming), Time Bin 14 (65-70 TOTAL), AVG",0.3 mg/kg,0.03
same,"BSS scoring G (grooming), Time Bin 15 (70-75 TOTAL), AVG",0.3 mg/kg,0.04
same,"BSS scoring G (grooming), Time Bin 16 (75-80 TOTAL), AVG",0.3 mg/kg,0.01
same,"BSS scoring G (grooming), Time Bin 17 (80-85 TOTAL), AVG",0.3 mg/kg,0.05
same,"BSS scoring G (grooming), Time Bin 18 (85-90 TOTAL), AVG",0.3 mg/kg,0.10
same,"BSS scoring R (resting), Time Bin 13 (60-65 TOTAL), AVG",0.3 mg/kg,0.07
same,"BSS scoring R (resting), Time Bin 14 (65-70 TOTAL), AVG",0.3 mg/kg,0.05
same,"BSS scoring R (resting), Time Bin 15 (70-75 TOTAL), AVG",0.3 mg/kg,0.08
same,"BSS scoring R (resting), Time Bin 16 (75-80 TOTAL), AVG",0.3 mg/kg,0.08
same,"BSS scoring R (resting), Time Bin 17 (80-85 TOTAL), AVG",0.3 mg/kg,0.09
same,"BSS scoring R (resting), Time Bin 18 (85-90 TOTAL), AVG",0.3 mg/kg,0.06
same,"BSS scoring A (active), Time Bin 13 (60-65 TOTAL)",[2],0 (7×) and 2 and 3 and 1 (2×) and 4
same,"BSS scoring A (active), Time Bin 14 (65-70 TOTAL)",[2],1 (4×) and 3 and 0 (6×) and 8
same,"BSS scoring A (active), Time Bin 15 (70-75 TOTAL)",[2],0 (2×) and 4 (2×) and 6 and 8 and 1 (2×) and 3 (3×) and 5
